{
  "source": "patent US20040076974A1",
  "about": "“Liver necrosis predictive genes” (priority 2002, published 2004)",
  "key": {"Male Sprague-Dawley rats": {"system": "Male Sprague-Dawley rats", "assay_type": "in vivo, rat", "conditions": "intraperitoneal injection, 100 mg/kg"}, "Sprague Dawley rats": {"system": "Sprague Dawley rats", "conditions": "rat; for Liver Necrosis / Score (histopathology liver necrosis severity score): intraperitoneal; for Liver Necrosis: 72 hours after treatment; for Score (histopathology liver necrosis severity score): 72 hours, 1 = not remarkable, 2 and higher increasing severity", "in_short": "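Toxicity calls (necrosis present or absent at 72 h) and histopathology scores were correlated with tissue gene expression from Crl:CD Sprague Dawley rats. Animals, usually 3 treated with compound by i.p. route and 3 given vehicle, were killed at 6, 24 or 72 h and tissues frozen immediately in liquid nitrogen.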"}},
  "note": "Read-outs that look alike come from different tables or passages of the source.",
  "data": [
    {"smiles": "S=C=Nc1cccc2ccccc12", "note": "[1-naphthylisothiocyanate]", "values": [
      {"measurement": "hepatocellular necrosis by histopathology", "setting": "Male Sprague-Dawley rats", "result": "induced hepatocellular necrosis"},
      {"measurement": "toxicity at the high dose", "setting": "Sprague Dawley rats; high dose of Table 1, liver necrosis at 72 hours", "result": "produced toxicity"},
      {"measurement": "Liver Necrosis", "setting": "Sprague Dawley rats; dose 15 mgkg", "result": "no"},
      {"measurement": "Score (histopathology liver necrosis severity score)", "setting": "Sprague Dawley rats; dose 15 mgkg", "result": 1},
      {"measurement": "Liver Necrosis", "setting": "Sprague Dawley rats; dose 60 mgkg", "result": "Yes"},
      {"measurement": "Score (histopathology liver necrosis severity score)", "setting": "Sprague Dawley rats; dose 60 mgkg", "result": 2}
    ]}
  ]
}
